Laboratory results published in ChEMBL document CHEMBL1201862, “PubChem BioAssay data set” (2004).
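Each compound was tested at five concentrations against cells in 96-well plates for 48 hours. GI50 is the concentration that inhibits growth by half.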 Active and inactive are the calls of the source. Rule as the data show it: active = GI50 up to about 1.1 µM and inactive = higher.

Legend:
Assay in all cases: growth of human tumour cells (NCI), 48 h
[1] = system: HCT-116
[2] = system: UACC-62
[3] = system: 786-0
[4] = system: SF-295
[5] = system: KM-20L2
[6] = system: TK-10
[7] = system: IGROV-1
[8] = system: SK-MEL-28
[9] = system: CCRF-CEM
[10] = system: SK-MEL-5
[11] = system: MOLT-4
[12] = system: HT-29
[13] = system: OVCAR-3
[14] = system: COLO 205
[15] = system: NCI-H460
[16] = system: XF498
[17] = system: SK-MEL-2
[18] = system: PC-3
[19] = system: Hs-578T
[20] = system: DU-145

SMILES | GI50 [1] | GI50 [2] | GI50 [3] | GI50 [4] | GI50 [5] | GI50 [6] | GI50 [7] | GI50 [8] | GI50 [9] | GI50 [10] | GI50 [11] | GI50 [12] | GI50 [13] | GI50 [14] | GI50 [15] | GI50 [16] | GI50 [17] | GI50 [18] | GI50 [19] | GI50 [20]
O=[N+]([O-])C1Cc2ccccc2OC1c1ccccc1 (stereo not drawn) | 66.4 µM (inactive) | 55.3 µM (inactive) | 35.3 µM (inactive) | 40.5 µM (inactive) | > 100 µM (inactive) | 77.1 µM (inactive) | 64.4 µM (inactive) | 86.1 µM (inactive) | 30.8 µM (inactive) | > 100 µM (inactive) | 23.4 µM (inactive) | 83.8 µM (inactive) | > 100 µM (inactive) | 69 µM (inactive) |  |  |  |  |  | 
O=C(CC(=O)Nc1ccccc1O)Nc1ccccc1O | 13.2 µM (inactive) | 3.24 µM (inactive) | 19.6 µM (inactive) | 39 µM (inactive) | 22.9 µM (inactive) | 53 µM (inactive) | 37.4 µM (inactive) | 13.8 µM (inactive) | 3.96 µM (inactive) | 10 µM (inactive) | 5.62 µM (inactive) | 27.9 µM (inactive) | 14.9 µM (inactive) | 18.5 µM (inactive) | 18.3 µM (inactive) |  |  |  |  | 
CCOC(=O)c1ccc(/C(C)=N/NC(N)=S)cc1 | > 100 µM (inactive) | > 100 µM (inactive) | > 100 µM (inactive) | > 100 µM (inactive) | > 100 µM (inactive) | > 100 µM (inactive) | > 100 µM (inactive) | > 100 µM (inactive) | > 100 µM (inactive) | > 100 µM (inactive) | > 100 µM (inactive) |  | > 100 µM (inactive) | > 100 µM (inactive) | > 100 µM (inactive) | > 100 µM (inactive) |  |  |  | 
COc1ccc(-c2cn3ccsc3n2)cc1 | 45.4 µM (inactive) | > 100 µM (inactive) | 35.6 µM (inactive) | > 100 µM (inactive) | 57.8 µM (inactive) | > 100 µM (inactive) | > 100 µM (inactive) | > 100 µM (inactive) | 64 µM (inactive) | > 100 µM (inactive) | 97.7 µM (inactive) | 82.8 µM (inactive) | > 100 µM (inactive) | 33.1 µM (inactive) | 87.7 µM (inactive) |  | > 100 µM (inactive) |  |  | 
CCOC(=O)[C@@]12C(C)=CC(=O)O[C@]1(C)C1C(=O)NC(=O)C12 (stereo partly drawn) | > 100 µM (inactive) | 17.4 µM (inactive) | > 100 µM (inactive) | > 100 µM (inactive) | > 100 µM (inactive) | > 100 µM (inactive) | > 100 µM (inactive) | > 100 µM (inactive) | > 100 µM (inactive) | > 100 µM (inactive) | > 100 µM (inactive) | > 100 µM (inactive) | 34.4 µM (inactive) | > 100 µM (inactive) | > 100 µM (inactive) |  | > 100 µM (inactive) |  |  | 
O=[N+]([O-])c1ccccc1C1N2CCCCC2[C@@H]2c3[nH]c4ccccc4c3CCN12 (stereo partly drawn) |  | 3.78 µM (inactive) | 16.1 µM (inactive) | 13.8 µM (inactive) | 12.4 µM (inactive) | 16.5 µM (inactive) | 15.6 µM (inactive) | 13.7 µM (inactive) | 10.4 µM (inactive) | 13.4 µM (inactive) | 5.78 µM (inactive) | 7.53 µM (inactive) | 19.8 µM (inactive) | 13.2 µM (inactive) | 17.7 µM (inactive) | 16.9 µM (inactive) | 13.6 µM (inactive) |  |  | 
CN(C)/C=N\c1nc(=O)n(C2CCC(CO)O2)cc1F (stereo not drawn) |  |  | > 100 µM (inactive) | > 100 µM (inactive) | > 100 µM (inactive) | > 100 µM (inactive) |  | > 100 µM (inactive) | > 100 µM (inactive) | > 100 µM (inactive) | > 100 µM (inactive) | > 100 µM (inactive) | > 100 µM (inactive) | > 100 µM (inactive) | > 100 µM (inactive) | > 100 µM (inactive) | > 100 µM (inactive) |  |  | 
Cc1nn(C)c(=O)c2nn(-c3ccccc3)c(C)c12 | > 100 µM (inactive) | > 100 µM (inactive) | > 100 µM (inactive) | > 100 µM (inactive) | > 100 µM (inactive) | > 100 µM (inactive) | > 100 µM (inactive) | > 100 µM (inactive) | > 100 µM (inactive) | > 100 µM (inactive) | > 100 µM (inactive) | > 100 µM (inactive) | > 100 µM (inactive) | > 100 µM (inactive) | > 100 µM (inactive) |  | > 100 µM (inactive) |  |  | 
COC(=O)C(C(=O)C(=O)Nc1ccc([N+](=O)[O-])cc1)c1nc2cc(C)c(C)cc2nc1O (stereo not drawn) | > 100 µM (inactive) | > 100 µM (inactive) | > 100 µM (inactive) | > 100 µM (inactive) | > 100 µM (inactive) | > 100 µM (inactive) | > 100 µM (inactive) | > 100 µM (inactive) | > 100 µM (inactive) | > 100 µM (inactive) | > 100 µM (inactive) | > 100 µM (inactive) | > 100 µM (inactive) | > 100 µM (inactive) | > 100 µM (inactive) | > 100 µM (inactive) |  |  |  | 
COC(=O)C1=C(c2ccc3c(c2)OCO3)OC(c2cc(OC)c(OC)c(OC)c2)C1 (stereo not drawn) | 2.88 µM (inactive) | 1.81 µM (inactive) | 3.61 µM (inactive) | 1.5 µM (inactive) | 1.57 µM (inactive) | 5.2 µM (inactive) | 2.75 µM (inactive) | > 100 µM (inactive) | 3.88 µM (inactive) | 2.49 µM (inactive) | 6.44 µM (inactive) | 1.29 µM (inactive) | 1.43 µM (inactive) | 1.2 µM (inactive) | 3.49 µM (inactive) | 14.5 µM (inactive) |  |  |  | 
CNc1ccc([N+](=O)[O-])c2c(NCCCN(C)C)ccnc12 | > 100 µM (inactive) |  | > 100 µM (inactive) | > 100 µM (inactive) | > 100 µM (inactive) | > 100 µM (inactive) | > 100 µM (inactive) | > 100 µM (inactive) | > 100 µM (inactive) |  | > 100 µM (inactive) | > 100 µM (inactive) | > 100 µM (inactive) | > 100 µM (inactive) | > 100 µM (inactive) | > 100 µM (inactive) | > 100 µM (inactive) |  |  | 
O=C(c1ccccc1)c1ccc2cccc(O)c2n1 | 6.14 µM (inactive) | 33.1 µM (inactive) | 15.8 µM (inactive) | 18.7 µM (inactive) | 35.6 µM (inactive) | 94.8 µM (inactive) | 93.1 µM (inactive) | 29.3 µM (inactive) | 1.19 µM (inactive) | 22.9 µM (inactive) | 5.27 µM (inactive) |  | 50.8 µM (inactive) | 37.5 µM (inactive) |  | 29.2 µM (inactive) | 47.6 µM (inactive) |  |  | 
O=C(/C=C(\O)C(=O)O)/C=C(\O)c1ccccc1 | > 4.65 µM (inactive) | > 4.65 µM (inactive) | > 100 µM (inactive) | > 4.65 µM (inactive) | > 4.65 µM (inactive) | > 4.65 µM (inactive) | > 4.65 µM (inactive) |  | > 4.65 µM (inactive) |  | > 100 µM (inactive) | > 4.65 µM (inactive) | > 4.65 µM (inactive) | > 4.65 µM (inactive) | > 4.65 µM (inactive) | > 100 µM (inactive) | > 4.65 µM (inactive) |  |  | 
COC(=O)CCC(=O)C(C#N)c1ccc(Cl)cc1Cl (stereo not drawn) | > 100 µM (inactive) | > 100 µM (inactive) | > 100 µM (inactive) | > 100 µM (inactive) | > 100 µM (inactive) | > 100 µM (inactive) | > 100 µM (inactive) | > 100 µM (inactive) | > 100 µM (inactive) |  | > 100 µM (inactive) | 4.97 µM (inactive) | > 100 µM (inactive) |  |  | > 100 µM (inactive) | > 100 µM (inactive) |  |  | 
NC(=O)C#CC#CC#CCO | 1.28 µM (inactive) | 1.92 µM (inactive) | 1.59 µM (inactive) | 3.94 µM (inactive) | 3.89 µM (inactive) | 1.61 µM (inactive) | 2.72 µM (inactive) | 2.14 µM (inactive) | 0.843 µM (active) | 1.98 µM (inactive) | 0.998 µM (active) | 2.39 µM (inactive) | 1.9 µM (inactive) | 1.23 µM (inactive) | 5.96 µM (inactive) |  | 2.2 µM (inactive) |  |  | 
[N-]=[N+]=NC1C2CC3C4CC5CC3[C@H](C2)C(C5)C41 (stereo partly drawn) | > 100 µM (inactive) | > 100 µM (inactive) | > 100 µM (inactive) | > 100 µM (inactive) |  | > 100 µM (inactive) | > 100 µM (inactive) | > 100 µM (inactive) | > 100 µM (inactive) | > 100 µM (inactive) | > 100 µM (inactive) | > 100 µM (inactive) | > 100 µM (inactive) | > 100 µM (inactive) | > 100 µM (inactive) | > 100 µM (inactive) | > 100 µM (inactive) |  |  | 
c1cncc(CSc2ncnc3[nH]cnc23)c1 | > 100 µM (inactive) | > 100 µM (inactive) | > 100 µM (inactive) | > 100 µM (inactive) |  | > 100 µM (inactive) | > 100 µM (inactive) | > 100 µM (inactive) | > 100 µM (inactive) | > 100 µM (inactive) | > 100 µM (inactive) | > 100 µM (inactive) | > 100 µM (inactive) | > 100 µM (inactive) | > 100 µM (inactive) |  | > 100 µM (inactive) | > 100 µM (inactive) | > 100 µM (inactive) | > 100 µM (inactive)
c1ccc(C2N3CCCCC3[C@@H]3c4[nH]c5ccccc5c4CCN23)nc1 (stereo partly drawn) | > 100 µM (inactive) | 96.8 µM (inactive) | > 100 µM (inactive) | > 100 µM (inactive) | > 100 µM (inactive) | > 100 µM (inactive) | > 100 µM (inactive) | > 100 µM (inactive) | > 100 µM (inactive) | > 100 µM (inactive) | > 100 µM (inactive) | > 100 µM (inactive) | > 100 µM (inactive) |  | > 100 µM (inactive) |  | > 100 µM (inactive) |  |  | 
